According to patent US11459338B2, “Heterocyclic compounds as PRMT5 inhibitors” (JUBILANT EPISCRIBE LLC, priority 2018, dated 2022):
Like-named read-outs stand apart in the source and are kept apart here.

Key:
Z-138 cells = experiment: Z-138 long term proliferation assay (Cell Titer Glo); assay type: cell-based; details: Homo sapiens; for GI50: 192 h, Z-138 cells, cell viability, day 8, read-out: PRMT5 Z138 GI50 Day 8 μM; for IC50: Z-138, 192 h, summary of Table 1, read-out: IC50 value (all the three assays): Z138 GI50 Day 8
Procedure, shortened: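 Z-138 cells exposed to ten-point 3-fold dilutions (top 10 μM, 0.3% DMSO) for 96 h at 37° C., 5% CO2, then re-dosed for four more days.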

PRMT5/MEP50 = target: T1, PRMT5/MEP50 (Homo sapiens, UniProt O14744); experiment: PRMT5/MEP50 enzyme assay on peptide substrates (3H-SAM Flashplate); assay type: biochemical; details: PRMT5/MEP50 10 nM, H4 1-15aa peptide 100 nM, 3H-SAM 1 μM
T1 construct: Full-length human PRMT5 (NP_006100)

[1] = tested on: Symmetric di-methyl arginine in Z-138 cells; experiment: Z-138 methylation assay, ELISA for detection of symmetric di-methyl arginine; assay type: cell-based; details: Homo sapiens
Experimental: General reagents. […] Iscove's Modified Dulbecco's Medium (IMDM), Horse serum, penicillin-streptomycin, PBS and TMB-ELISA substrate solution were purchased from ThermoFisher Scientific. Symmetric di-methyl arginine antibody was purchased from Cell Signaling Technologies.Anti-SNRPD3/SmD3 antibody was purchased from Sigma-Aldrich.
ELISA for detection of Symmetric di-methyl arginine. […] A compound source plate was prepared by performing ten-point 3-fold dilution in DMSO, such that the final top concentration of the compound was 10 μM, and DMSO was 0.3%. The total volume of compounds added was 20 μL. The cells were incubated for 96 h at 37° C., 5% CO2. Z-138 cells were directly lysed in media with 3× Lysis Buffer (1×: 10 mM HEPES pH7.9, 5 mM MgCl2, 1M NaCl, 0.25M Sucrose, 1% Triton X-100, 1 mM PMSF, Protease & Phosphatase inhibitors). […] Plates were incubated at room temperature for a minimum of 3 h and then washed with PBS-Tween 20 (0.05%). The plates were blocked with 5% BSA at room temperature for 1 h, washed with PBS-Tween 20 and incubated with primary antibody at 4 C overnight.

[2] = Z-138 cells, 96 h (day 4), read-out: PRMT5 Z138 SDMA ELISA Day 4 μM
[3] = Z-138, 96 h, summary of Table 1, read-out: IC50 value (all the three assays): Z138 SDMA ELISA Day 4

T1 sequence (O14744 whole entry): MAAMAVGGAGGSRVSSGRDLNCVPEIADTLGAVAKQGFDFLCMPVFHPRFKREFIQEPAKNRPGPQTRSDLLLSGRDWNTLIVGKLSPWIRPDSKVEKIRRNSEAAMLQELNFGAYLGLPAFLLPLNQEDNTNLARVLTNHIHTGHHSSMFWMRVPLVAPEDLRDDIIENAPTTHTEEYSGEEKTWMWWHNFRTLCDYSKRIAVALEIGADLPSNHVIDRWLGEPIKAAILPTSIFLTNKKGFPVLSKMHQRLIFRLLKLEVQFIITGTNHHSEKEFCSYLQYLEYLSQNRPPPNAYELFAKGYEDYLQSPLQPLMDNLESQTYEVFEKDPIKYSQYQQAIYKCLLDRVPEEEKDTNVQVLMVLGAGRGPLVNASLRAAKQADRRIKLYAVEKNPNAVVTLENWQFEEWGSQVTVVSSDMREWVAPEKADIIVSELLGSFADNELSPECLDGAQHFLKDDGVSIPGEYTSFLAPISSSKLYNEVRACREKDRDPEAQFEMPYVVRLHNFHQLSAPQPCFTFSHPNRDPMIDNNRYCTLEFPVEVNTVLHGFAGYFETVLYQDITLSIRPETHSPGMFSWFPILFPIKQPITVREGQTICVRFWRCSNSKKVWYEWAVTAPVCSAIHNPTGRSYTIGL
T1 sequence (Q9BQA1 whole entry partner): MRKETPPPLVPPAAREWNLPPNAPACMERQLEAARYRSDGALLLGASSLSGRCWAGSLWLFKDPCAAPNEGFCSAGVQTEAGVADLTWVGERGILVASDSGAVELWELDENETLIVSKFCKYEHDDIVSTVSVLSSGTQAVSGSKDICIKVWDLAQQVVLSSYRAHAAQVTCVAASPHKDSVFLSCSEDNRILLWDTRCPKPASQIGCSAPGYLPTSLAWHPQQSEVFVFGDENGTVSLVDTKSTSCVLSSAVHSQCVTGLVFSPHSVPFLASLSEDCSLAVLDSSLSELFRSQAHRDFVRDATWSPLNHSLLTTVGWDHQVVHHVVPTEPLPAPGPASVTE

| SMILES | IC50 (PRMT5/MEP50) [nM] | IC50 [1, 2] [nM] | IC50 [1, 3] [nM] | GI50 (Z-138 cells) [nM] | IC50 (Z-138 cells) [nM] |
| --- | --- | --- | --- | --- | --- |
| Cn1cc(-c2ccc3nc(C(=O)NC[C@H](O)CN4CCc5ccccc5C4)cn3c2)nn1 [Example 36, (S)—N-(3-(3,4-dihydroisoquinolin-2(1H)-yl)-2-hydroxypropyl)-6-(1-methyl-1H-1,2,3-triazol-4-yl)imidazo[1,2-a]pyridine-2-carboxamide] | 10 to 1000 | 10 to 1000 | 10 to 1000 | 10 to 1000 | 10 to 1000 |
| CN(C[C@H](O)CN1CCc2ccccc2C1)C(=O)c1cn2cc(-c3ccn(C)c(=O)c3)ncc2n1 [Example 93, (R)—N-(3-(3,4-dihydroisoquinolin-2(1H)-yl)-2-hydroxypropyl)-N-methyl-6-(1-methyl-2-oxo-1,2-dihydropyridin-4-yl)imidazo[1,2-a]pyrazine-2-carboxamide] | 10 to 1000 | 10 to 1000 |  | 1000 to 5000 |  |
| O=C(NCC(O)CN1CCc2ccccc2C1)c1cn2cc(-c3ccccc3)ccc2n1 (centres unmarked) [Example 10, N-(3-(3,4-dihydroisoquinolin-2(1H)-yl)-2-hydroxypropyl)-6-phenylimidazo[1,2-a]pyridine-2-carboxamide] | 10 to 1000 | 10 to 1000 | 10 to 1000 | 10 to 1000 | 10 to 1000 |
| CS(=O)(=O)Nc1ccc2nc(C(=O)NC[C@H](O)CN3CCc4ccccc4C3)cn2c1 [Example 41, (S)—N-(3-(3,4-dihydroisoquinolin-2(1H)-yl)-2-hydroxypropyl)-6-(methylsulfonamido)imidazo[1,2-a]pyridine-2-carboxamide] | > 5000 | 10 to 1000 |  | 10 to 1000 |  |
| O=C(NCC(O)CNC1Cc2ccccc2C1)c1cn2cc(C(F)(F)F)ccc2n1 (centres unmarked) [Example 96] | 10 to 1000 | 10 to 1000 | 10 to 1000 | 10 to 1000 | 10 to 1000 |
| CCCc1nc(-c2ccc3nc(C(=O)NC[C@H](O)CN4CCc5ccccc5C4)cn3c2)no1 [Example 5, (S)—N-(3-(3,4-dihydroisoquinolin-2(1H)-yl)-2-hydroxypropyl)-6-(5-propyl-1,2,4-oxadiazol-3-yl)imidazo[1,2-a]pyridine-2-carboxamide] | 10 to 1000 | 10 to 1000 | 10 to 1000 | 10 to 1000 | 10 to 1000 |
| CC(=O)N1CC(n2cc(-c3ccc4nc(C(=O)NC[C@H](O)CN5CCc6ccccc6C5)cn4c3)cn2)C1 [Example 23, (S)-6-(1-(1-acetylazetidin-3-yl)-1H-pyrazol-4-yl)-N-(3-(3,4-dihydroisoquinolin-2(1H)-yl)-2-hydroxypropyl)imidazo[1,2-a]pyridine-2-carboxamide] | 10 to 1000 | 10 to 1000 | 10 to 1000 | 10 to 1000 | 10 to 1000 |
| O=C(NC[C@H](O)CN1CCc2ccccc2C1)c1cn2cc(-c3ccc(F)cc3)ccc2n1 [Example 17, (S)—N-(3-(3,4-dihydroisoquinolin-2(1H)-yl)-2-hydroxypropyl)-6-(4fluorophenyl) imidazo[1,2-a]pyridine-2-carboxamide] | 10 to 1000 | 10 to 1000 | 10 to 1000 | 10 to 1000 | 10 to 1000 |
| O=C(NC[C@H](O)CN1CCc2ccccc2C1)c1cn2cc(-c3cc(F)cc(F)c3)ccc2n1 [Example 16, (S)-6-(3,5-difluorophenyl)-N-(3-(3,4-dihydroisoquinolin-2(1H)-yl)-2-hydroxypropyl)imidazo[1,2-a]pyridine-2-carboxamide] | 10 to 1000 | 10 to 1000 | 10 to 1000 | 10 to 1000 | 10 to 1000 |
| CCn1cc(-c2ccc3nc(C(=O)NC[C@H](O)CN4CCc5ccccc5C4)cn3c2)cn1 [Example 4, (S)—N-(3-(3,4-dihydroisoquinolin-2(1H)-yl)-2-hydroxypropyl)-6-(1-ethyl-1H-pyrazol-4-yl)imidazo [1,2-a]pyridine-2-carboxamide] | 10 to 1000 | 10 to 1000 | 10 to 1000 | 10 to 1000 | 10 to 1000 |
| N#Cc1ccc(-c2ccc3nc(C(=O)NC[C@H](O)CN4CCc5ccccc5C4)cn3c2)cc1 [Example 14, (S)-6-(4-cyanophenyl)-N-(3-(3,4-dihydroisoquinolin-2(1H)-yl)-2-hydroxypropyl) imidazo[1,2-a]pyridine-2-carboxamide] | 10 to 1000 | 10 to 1000 | 10 to 1000 | 10 to 1000 | 10 to 1000 |

More lines, main results first:

| IC50 (PRMT5/MEP50) [nM] | IC50 [1, 2] [nM] | IC50 [1, 3] [nM] | SMILES | GI50 (Z-138 cells) [nM] | IC50 (Z-138 cells) [nM] |
| --- | --- | --- | --- | --- | --- |
| 10 to 1000 | 10 to 1000 |  | O=C(NC[C@H](O)CN1CCc2ccccc2C1)c1cn2cc(N3CCC3)ccc2n1 [Example 69, (S)-6-(azetidin-1-yl)-N-(3-(3,4-dihydroisoquinolin-2(1H)-yl)-2-hydroxypropyl)imidazo[1,2-a]pyridine-2-carboxamide] | 1000 to 5000 |  |
| 1000 to 5000 | 10 to 1000 |  | COc1ccc2nc(C(=O)NCC(O)CN3CCc4ccccc4C3)cn2c1 (centres unmarked) [Example 9, N-(3-(3,4-dihydroisoquinolin-2(1H)-yl)-2-hydroxypropyl)-6-methoxyimidazo [1,2a]pyridine-2-carboxamide] | 1000 to 5000 |  |
| 10 to 1000 | 10 to 1000 | 10 to 1000 | Cc1ccc2nc(C(=O)NCC(O)CN3CCc4ccccc4C3)cn2c1 (centres unmarked) [Example 2, N-(3-(3,4-dihydroisoquinolin-2(1H)-yl)-2-hydroxypropyl)-6-methylimidazo[1,2-a]pyridine-2-carboxamide] | 10 to 1000 | 10 to 1000 |
| 1000 to 5000 | 10 to 1000 |  | CC1CCc2nc(C(=O)NCC(O)CN3CCc4ccccc4C3)cn2C1 (centres unmarked) [Example 102, N-(3-(3,4-dihydroisoquinolin-2(1H)-yl)-2-hydroxypropyl)-6-methyl-5,6,7,8-tetrahydroimidazo[1,2-a]pyridine-2-carboxamide] | 10 to 1000 |  |
| 1000 to 5000 | 10 to 1000 |  | O=C(NC[C@H](O)CN1CCc2ccccc2C1)c1cn2c(n1)COC(c1ccccc1)C2 (stereo partly drawn) [Example 112, N—((S)-3-(3,4-dihydroisoquinolin-2(1H)-yl)-2-hydroxypropyl)-6-phenyl-5,6-dihydro-8H-imidazo[2,1-c][1,4]oxazine-2-carboxamide] | 1000 to 5000 |  |
| 1000 to 5000 | 10 to 1000 |  | CC(C)C1CCc2nc(C(=O)NC[C@H](O)CN3CCc4ccccc4C3)cn2C1 (stereo partly drawn) [Example 108, N—((S)-3-(3,4-dihydroisoquinolin-2(1H)-yl)-2-hydroxypropyl)-6-isopropyl-5,6,7,8-tetrahydroimidazo[1,2-a]pyridine-2-carboxamide] | 10 to 1000 |  |
| > 5000 | 1000 to 5000 |  | CC(C)N1CCn2cc(C(=O)NCC(O)CN3CCc4ccccc4C3)nc2C1 (centres unmarked) [Example 113, N-(3-(3,4-dihydroisoquinolin-2(1H)-yl)-2-hydroxypropyl)-7-isopropyl-5,6,7,8-tetrahydroimidazo [1,2-a] pyrazine-2-carboxamide] | > 5000 |  |
| 1000 to 5000 | 10 to 1000 |  | O=C(NCC(O)CN1CCc2ccccc2C1)c1cn2c(n1)CC(c1ccccc1)CC2 (centres unmarked) [Example 109, N-(3-(3,4-dihydroisoquinolin-2(1H)-yl)-2-hydroxypropyl)-7-phenyl-5,6,7,8-tetrahydroimidazo[1,2-a]pyridine-2-carboxamide] | > 5000 |  |
| 10 to 1000 | 10 to 1000 | 10 to 1000 | CC(C)c1ccc2nc(C(=O)NCC(O)CN3CCc4ccccc4C3)cn2c1 (stereo in doubt) [Example 12, (S)—N-(3-(3,4-dihydroisoquinolin-2(1H)-yl)-2-hydroxypropyl)-6-isopropylimidazo [1,2-a]pyridine-2-carboxamide] | 10 to 1000 | 10 to 1000 |
| 10 to 1000 | 10 to 1000 | 10 to 1000 | CC(C)Cn1cc(-c2ccc3nc(C(=O)NCC(O)CN4CCc5ccccc5C4)cn3c2)cn1 (stereo in doubt) [Example 18, (S)—N-(3-(3,4-dihydroisoquinolin-2(1H)-yl)-2-hydroxypropyl)-6-(1-isobutyl-1H-pyrazol-4-yl)imidazo[1,2-a]pyridine-2-carboxamide] | 10 to 1000 | 10 to 1000 |
| 1000 to 5000 | 10 to 1000 |  | O=C(NCC(O)CN1CCc2ccccc2C1)c1cn2c(n1)CCC(c1ccccc1)C2 (centres unmarked) [Example 110, N-(3-(3,4-dihydroisoquinolin-2(1H)-yl)-2-hydroxypropyl)-6-phenyl-5,6,7,8-tetrahydroimidazo[1,2-a]pyridine-2-carboxamide] | 1000 to 5000 |  |
| 10 to 1000 | 10 to 1000 | 10 to 1000 | O=C(NC[C@H](O)CN1CCc2ccccc2C1)c1cn2c(n1)CC[C@@H](C(F)(F)F)C2 [Example 121A, (R)—N—((S)-3-(3,4-dihydroisoquinolin-2(1H)-yl)-2-hydroxypropyl)-6-(trifluoromethyl)-5,6,7,8-tetrahydroimidazo[1,2-a]pyridine-2-carboxamide] | 10 to 1000 | 10 to 1000 |
